Ends that are not written are not given here. * marks the point of attachment. For = O=C*
How the values were obtained:
[1] = system: proenzyme Factor C from amebocyte lysate; assay: Residual LPS activity, amebocyte lysate test (Pierce Chromogenic Endotoxin Quant Kit); type: biochemical; settings: 4 μg BacSp222 preincubated with 3 pg LPS O111:B4 standard, 15 min, 37 °C, 60 μL PBS; 405 nm; mean n = 3
Protocol: The separate and independent assay used to determine the reduction of the LPS biological potential after incubation with BacSp222 was a test. Briefly, this approach utilizes the ability of endotoxin to activate a proenzyme Factor C from amebocyte lysate and allows for spectrophotometric measurement of the released active enzyme using a chromogenic synthetic peptide substrate. Due to high specificity and sensitivity, this assay is widely used to detect trace amounts of LPS. As presented in Figure , preincubation of LPS with a large excess of BacSp222 reduced LPS activity by ca. 50%.
The residual biological activity of LPS after preincubation with BacSp222 was evaluated by using a commercial assay kit. The reaction was performed for 4 μg of BacSp222, which was preincubated with 3 pg of LPS O111:B4 standard for 15 min at 37 °C in a final volume of 60 μL of PBS without Ca^2+ and Mg^2+. Simultaneously and independently, the same quantity of BacSp222 and LPS as above was preincubated separately as controls. After preincubation, the residual biological activity of endotoxin in all samples was determined using a spectrophotometric Pierce Chromogenic Endotoxin Quant Kit (Thermo, Waltham, MA, USA). The absorbance was measured at 405 nm using a microplate reader Synergy H1 Hybrid plate reader controlled by Gene5 version 2.00.18 software (BIOTEK Instruments, Winooski, VT, USA).

[2] = Gel filtration of LPS, BacSp222 and complexes; type: physicochemical
Protocol: Gel filtration was conducted on a Superdex 200 Increase 10/300 GL (Cytiva, Marlborough, MA, USA) column using an UltiMate 3000 HPLC apparatus (Thermo, Waltham, MA, USA). The separations were performed at room temperature in 50 mM NH4COOH pH 5.8 at a flow rate of 0.6 mL/min. The spectrophotometric detection was conducted at 215 and 280 nm, and before separations, the column was calibrated using tryptophan (204 Da), […] (75 kDa), aldolase (158 kDa), ferritin (440 kDa), and Blue Dextran 2000 (2 MDa). The following samples were separated: (1) 375 μg of LPS O55:B5 (IEC), (2) 375 μg of LPS O111:B4 (PE), (3) 75 μg of BacSp222, (4) 375 μg of LPS O55:B5 (IEC) + 75 μg BacSp222, and (5) 375 μg of LPS O111:B4 (PE) + 75 μg BacSp222. All above solutions were prepared in phosphate-buffered saline (PBS) without Ca^2+ and Mg^2+ (Gibco, Paisley, UK) and were preincubated before separation for 15 min at 37 °C. The fractions containing LPS O55:B5 alone and LPS-BacSp222 complex, visible as peaks eluting at 12.5–14 min and 12.5–16 min, both marked by arrows in Figure , were manually collected, freeze-dried, and subjected to sodium dodecyl sulfate polyacrylamide gel electrophoresis (SDS-PAGE) under reducing conditions. […]

[3] = Dynamic light scattering, hydrodynamic radius; type: physicochemical; settings: BacSp222 alone at 5, 50, 500 μg/mL, DLS, PBS, 37 °C
Protocol: For dynamic light scattering experiments, (1) the solution of PBS without Ca^2+ and Mg^2+ or PBS without Ca^2+ and Mg^2+ with (2) 50 μg/mL LPS O55:B5 (IEC), (3) 50 μg/mL LPS O111:B4 (IEC), (4) BacSp222 at concentration 5, 50, and 500 μg/mL, or (5) 50 μg/mL LPS O55/B5 (IEC) + BacSp222 at concentration 5, 50, and 500 μg/mL were incubated for 15 min at 37 °C. Then, the hydrodynamic radius of the LPS and BacSp222 molecules, as well as LPS-BacSp222 complexes, was determined by dynamic light scattering (DLS) on the Prometheus Panta apparatus (NanoTemper, Munich, Germany). Prometheus Standard Capillaries (NanoTemper, Munich, Germany) were used in the experiments, and the measurements were taken at 37 °C. The results were processed by the instrument software (Prometheus Panta Software).

TLR2/TLR6 heterodimer = settings: cited from earlier work
From the text: A good example of such a multifunctional and immunomodulatory bacteriocin is the peptide BacSp222, produced by an opportunistic canine pathogen, strain 222. BacSp222 is a 50 amino acid long linear peptide encoded on a plasmid and is produced without a leader sequence, retaining a formylated N-terminal methionine.

human neutrophils = system: human neutrophils; parameters: method as in number not given; settings: ref number not given; cited from earlier work
FPR1 = system: FPR1; parameters: method as in number not given; settings: ref number not given; cited from earlier work
FPR2 = system: FPR2; parameters: method as in number not given; settings: ref number not given; cited from earlier work

For-MAGLLRFLLSKGRALYNWAKSHVGKVWEWLKSGATYEQIKEWIENALGWR [BacSp222]
reduction of LPS activity [1]: ca. 50%
BacSp222 peak at 36 min after incubation with LPS ([2]; 375 μg LPS + 75 μg BacSp222, 15 min, 37 °C, peptide referred to as "the bacteriocin"): disappears completely
apparent molecular mass, gel filtration (peptide peak) ([2]; peak at 36 min, Superdex 200 Increase, 50 mM NH4COOH pH 5.8, 0.6 mL/min, 215 nm, room temperature): 5.5 kDa
oligomerization in solution [3]: has a tendency to oligomerize in solutions
affinity for TLR2/TLR6 heterodimer vs synthetic ligands (TLR2/TLR6 heterodimer; kinetic studies, vs ligands based on lipoteichoic acids or lipopeptides, ref number not given): lower affinity for the TLR2/TLR6 heterodimer than synthetic ligands
recognition by TLR2/TLR6 (TLR2/TLR6 heterodimer; ref our recent studies (ref 15)): recognized by the TLR2/TLR6 receptor heterodimer
activation of human neutrophils (ROS, NETs) (human neutrophils): cannot activate human neutrophils to produce reactive oxygen species (ROS) and induce the production of extracellular neutrophil traps (NETs)
activation of FPR1 (FPR1): cannot activate
activation of FPR2 (FPR2): cannot activate
